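Briefly, cells in 96-well plates were exposed to five compound concentrations for 48 h, and endpoints were estimated by linear interpolation. GI50 = concentration required for 50% inhibition of growth. The concentration for full growth arrest is given as TGI.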
How the values were obtained:
Assay in all cases: NCI-60 cell line screen, 48 h
786-0 renal = system: 786-0 renal
A498 renal = system: A498 renal
A549 NSCLC = system: A549 NSCLC
ACHN renal = system: ACHN renal
BT-549 breast = system: BT-549 breast
CAKI-1 renal = system: CAKI-1 renal
CCRF-CEM leukemia = system: CCRF-CEM leukemia
COLO 205 colon = system: COLO 205 colon
DLD-1 colon = system: DLD-1 colon
DMS 114 small cell lung = system: DMS 114 small cell lung
DMS 273 small cell lung = system: DMS 273 small cell lung
DU-145 prostate = system: DU-145 prostate
EKVX NSCLC = system: EKVX NSCLC
HCC-2998 colon = system: HCC-2998 colon
HCT-116 colon = system: HCT-116 colon
HCT-15 colon = system: HCT-15 colon
HL-60(TB) leukemia = system: HL-60(TB) leukemia
HOP-18 NSCLC = system: HOP-18 NSCLC
HOP-62 NSCLC = system: HOP-62 NSCLC
HOP-92 NSCLC = system: HOP-92 NSCLC
HS 578T breast = system: HS 578T breast
HT29 colon = system: HT29 colon
IGROV1 ovarian = system: IGROV1 ovarian
K-562 leukemia = system: K-562 leukemia
KM12 colon = system: KM12 colon
KM20L2 colon = system: KM20L2 colon
LOX IMVI melanoma = system: LOX IMVI melanoma
LXFL 529 NSCLC = system: LXFL 529 NSCLC
M14 melanoma = system: M14 melanoma
M19-MEL melanoma = system: M19-MEL melanoma
MALME-3M melanoma = system: MALME-3M melanoma
MCF7 breast = system: MCF7 breast
MDA-MB-231 breast = system: MDA-MB-231 breast
MDA-MB-435 = system: MDA-MB-435
MDA-N = system: MDA-N
MOLT-4 leukemia = system: MOLT-4 leukemia
NCI-H226 lung = system: NCI-H226 lung
NCI-H23 lung = system: NCI-H23 lung
NCI-H460 lung = system: NCI-H460 lung
NCI-H522 lung = system: NCI-H522 lung
NCI/ADR-RES ovarian = system: NCI/ADR-RES ovarian
OVCAR-3 ovarian = system: OVCAR-3 ovarian
OVCAR-4 ovarian = system: OVCAR-4 ovarian
OVCAR-5 ovarian = system: OVCAR-5 ovarian
OVCAR-8 ovarian = system: OVCAR-8 ovarian
PC-3 prostate = system: PC-3 prostate
RPMI-8226 leukemia = system: RPMI-8226 leukemia
RXF 393 renal = system: RXF 393 renal
SF-268 CNS = system: SF-268 CNS
SF-295 CNS = system: SF-295 CNS
SF-539 CNS = system: SF-539 CNS
SK-MEL-2 melanoma = system: SK-MEL-2 melanoma
SK-MEL-28 melanoma = system: SK-MEL-28 melanoma
SK-MEL-5 melanoma = system: SK-MEL-5 melanoma
SK-OV-3 ovarian = system: SK-OV-3 ovarian
SN12C renal = system: SN12C renal
SNB-19 CNS = system: SNB-19 CNS
SNB-75 CNS = system: SNB-75 CNS
SNB-78 CNS = system: SNB-78 CNS
SR leukemia = system: SR leukemia
SW-620 colon = system: SW-620 colon
T-47D breast = system: T-47D breast
TK-10 renal = system: TK-10 renal
U251 CNS = system: U251 CNS
UACC-257 melanoma = system: UACC-257 melanoma
UACC-62 melanoma = system: UACC-62 melanoma
UO-31 renal = system: UO-31 renal
XF 498 CNS = system: XF 498 CNS

Structure (SMILES): CC(/C=C/C=C\C=C\C=C(/C)C(=O)NC(C)CO)=C\C(C)C(O)/C(C)=C/C(C)CCc1ccccc1 (configuration not stated)
- TGI (786-0 renal): 26.4 µM
- TGI (A498 renal): 26.7 µM
- TGI (A549 NSCLC): > 100 µM
- TGI (ACHN renal): 21.9 µM
- TGI (BT-549 breast): 33.1 µM
- TGI (CAKI-1 renal): 54.1 µM
- TGI (CCRF-CEM leukemia): > 56.6 µM
- TGI (COLO 205 colon): 26.8 µM
- TGI (DLD-1 colon): 31.6 µM
- TGI (DMS 114 small cell lung): 2.47 µM
- TGI (DMS 273 small cell lung): 17.1 µM
- TGI (DU-145 prostate): > 100 µM
- TGI (EKVX NSCLC): > 80.6 µM
- TGI (HCC-2998 colon): 26.7 µM
- TGI (HCT-116 colon): 19.4 µM
- TGI (HCT-15 colon): 31.1 µM
- TGI (HL-60(TB) leukemia): > 100 µM
- TGI (HOP-18 NSCLC): 24.2 µM
- TGI (HOP-62 NSCLC): 37.5 µM
- TGI (HOP-92 NSCLC): 13.5 µM
- TGI (HS 578T breast): 52.8 µM
- TGI (HT29 colon): 25.2 µM
- TGI (IGROV1 ovarian): 20.1 µM
- TGI (K-562 leukemia): > 53.6 µM
- TGI (KM12 colon): 19.1 µM
- TGI (KM20L2 colon): 25.1 µM
- TGI (LOX IMVI melanoma): 16.5 µM
- TGI (LXFL 529 NSCLC): 18.7 µM
- TGI (M14 melanoma): 23 µM
- TGI (M19-MEL melanoma): 19.4 µM
- TGI (MALME-3M melanoma): 22.3 µM
- TGI (MCF7 breast): 19.7 µM
- TGI (MDA-MB-231 breast): 45.2 µM
- TGI (MDA-MB-435): 39.7 µM
- TGI (MDA-N): 31.5 µM
- TGI (MOLT-4 leukemia): 55.6 µM
- TGI (NCI-H226 lung): 26.5 µM
- TGI (NCI-H23 lung): 17 µM
- TGI (NCI-H460 lung): 26.5 µM
- TGI (NCI-H522 lung): 17.6 µM
- TGI (NCI/ADR-RES ovarian): 93 µM
- TGI (OVCAR-3 ovarian): 20 µM
- TGI (OVCAR-4 ovarian): 37.4 µM
- TGI (OVCAR-5 ovarian): 31 µM
- TGI (OVCAR-8 ovarian): 25 µM
- TGI (PC-3 prostate): 25.2 µM
- TGI (RPMI-8226 leukemia): > 78.6 µM
- TGI (RXF 393 renal): 26.6 µM
- TGI (SF-268 CNS): 28.4 µM
- TGI (SF-295 CNS): 13.4 µM
- TGI (SF-539 CNS): 27.1 µM
- TGI (SK-MEL-2 melanoma): 29.6 µM
- TGI (SK-MEL-28 melanoma): 25.9 µM
- TGI (SK-MEL-5 melanoma): 15.5 µM
- TGI (SK-OV-3 ovarian): 64 µM
- TGI (SN12C renal): 26.4 µM
- TGI (SNB-19 CNS): 35.8 µM
- TGI (SNB-75 CNS): 26.7 µM
- TGI (SNB-78 CNS): 25.2 µM
- TGI (SR leukemia): > 59 µM
- TGI (SW-620 colon): 28.4 µM
- TGI (T-47D breast): 46.4 µM
- TGI (TK-10 renal): 32.1 µM
- TGI (U251 CNS): 37.9 µM
- TGI (UACC-257 melanoma): 12.3 µM
- TGI (UACC-62 melanoma): 25.6 µM
- TGI (UO-31 renal): 27.3 µM
- TGI (XF 498 CNS): 22 µM

Structure (SMILES): CC[C@@]1(O)C(=O)OCc2c1cc1n(c2=O)Cc2cc3c([N+](=O)[O-])c(O)ccc3nc2-1
- GI50 (786-0 renal): 0.0477 µM
- TGI (786-0 renal): 0.432 µM
- GI50 (A498 renal): 0.915 µM
- TGI (A498 renal): 5.66 µM
- GI50 (A549 NSCLC): 0.426 µM
- TGI (A549 NSCLC): 18.3 µM
- GI50 (ACHN renal): 0.051 µM
- TGI (ACHN renal): 0.611 µM
- GI50 (CAKI-1 renal): 0.0864 µM
- TGI (CAKI-1 renal): 8.47 µM
- GI50 (CCRF-CEM leukemia): < 0.026 µM
- TGI (CCRF-CEM leukemia): 0.469 µM
- GI50 (COLO 205 colon): 3.56 µM
- TGI (COLO 205 colon): 27.3 µM
- GI50 (DLD-1 colon): 9.41 µM
- TGI (DLD-1 colon): > 100 µM
- GI50 (DMS 114 small cell lung): 0.0601 µM
- TGI (DMS 114 small cell lung): 1.2 µM
- GI50 (DMS 273 small cell lung): 0.0605 µM
- TGI (DMS 273 small cell lung): 2.02 µM
- GI50 (EKVX NSCLC): 13.3 µM
- TGI (EKVX NSCLC): > 100 µM
- GI50 (HCC-2998 colon): 2.02 µM
- TGI (HCC-2998 colon): 13.1 µM
- GI50 (HCT-116 colon): 0.431 µM
- TGI (HCT-116 colon): 7.11 µM
- GI50 (HCT-15 colon): 2.71 µM
- TGI (HCT-15 colon): > 100 µM
- GI50 (HL-60(TB) leukemia): 0.13 µM
- TGI (HL-60(TB) leukemia): 1.3 µM
- GI50 (HOP-18 NSCLC): 0.758 µM
- TGI (HOP-18 NSCLC): > 100 µM
- GI50 (HOP-62 NSCLC): 0.026 µM
- TGI (HOP-62 NSCLC): 0.0964 µM
- GI50 (HOP-92 NSCLC): 1.26 µM
- TGI (HOP-92 NSCLC): 6.56 µM
- GI50 (HT29 colon): 2.64 µM
- TGI (HT29 colon): > 100 µM
- GI50 (IGROV1 ovarian): 1.04 µM
- TGI (IGROV1 ovarian): 17.3 µM
- GI50 (K-562 leukemia): 0.84 µM
- TGI (K-562 leukemia): > 100 µM
- GI50 (KM12 colon): 1.68 µM
- TGI (KM12 colon): 20.9 µM
- GI50 (KM20L2 colon): 1.97 µM
- TGI (KM20L2 colon): 38.4 µM
- GI50 (LOX IMVI melanoma): 0.0552 µM
- TGI (LOX IMVI melanoma): 0.91 µM
- GI50 (LXFL 529 NSCLC): 4.33 µM
- TGI (LXFL 529 NSCLC): > 100 µM
- GI50 (M14 melanoma): 0.188 µM
- TGI (M14 melanoma): 2.47 µM
- GI50 (M19-MEL melanoma): 0.655 µM
- TGI (M19-MEL melanoma): 11.9 µM
- GI50 (MALME-3M melanoma): 1.06 µM
- TGI (MALME-3M melanoma): 12.7 µM
- GI50 (MOLT-4 leukemia): 0.0227 µM
- TGI (MOLT-4 leukemia): 0.188 µM
- GI50 (NCI-H226 lung): 1.29 µM
- GI50 (NCI-H23 lung): 0.0821 µM
- TGI (NCI-H23 lung): 0.636 µM
- GI50 (NCI-H460 lung): 0.053 µM
- TGI (NCI-H460 lung): 1.14 µM
- GI50 (NCI-H522 lung): 0.132 µM
- TGI (NCI-H522 lung): 3.07 µM
- GI50 (OVCAR-3 ovarian): 1.6 µM
- TGI (OVCAR-3 ovarian): 8.26 µM
- GI50 (OVCAR-4 ovarian): 2.22 µM
- TGI (OVCAR-4 ovarian): 8.73 µM
- GI50 (OVCAR-5 ovarian): 0.879 µM
- TGI (OVCAR-5 ovarian): 11.6 µM
- GI50 (OVCAR-8 ovarian): 0.249 µM
- TGI (OVCAR-8 ovarian): 12.7 µM
- GI50 (RPMI-8226 leukemia): 0.848 µM
- TGI (RPMI-8226 leukemia): 9.39 µM
- GI50 (RXF 393 renal): 0.328 µM
- TGI (RXF 393 renal): 2.05 µM
- GI50 (SF-268 CNS): 0.073 µM
- TGI (SF-268 CNS): > 22.3 µM
- GI50 (SF-295 CNS): 0.155 µM
- TGI (SF-295 CNS): 2.2 µM
- GI50 (SF-539 CNS): 0.0449 µM
- TGI (SF-539 CNS): 0.357 µM
- GI50 (SK-MEL-2 melanoma): 2.27 µM
- TGI (SK-MEL-2 melanoma): 6.67 µM
- GI50 (SK-MEL-28 melanoma): 2.75 µM
- TGI (SK-MEL-28 melanoma): 35.5 µM
- GI50 (SK-MEL-5 melanoma): 0.459 µM
- TGI (SK-MEL-5 melanoma): 2.39 µM
- GI50 (SK-OV-3 ovarian): 0.614 µM
- TGI (SK-OV-3 ovarian): 25 µM
- GI50 (SN12C renal): 0.057 µM
- TGI (SN12C renal): 4.77 µM
- GI50 (SNB-19 CNS): 0.0661 µM
- TGI (SNB-19 CNS): > 27.8 µM
- GI50 (SNB-75 CNS): 0.151 µM
- TGI (SNB-75 CNS): 1.12 µM
- GI50 (SNB-78 CNS): 6.6 µM
- TGI (SNB-78 CNS): > 100 µM
- TGI (SR leukemia): < 0.0215 µM
- GI50 (SW-620 colon): 0.416 µM
- TGI (SW-620 colon): 33.8 µM
- GI50 (TK-10 renal): 19.5 µM
- TGI (TK-10 renal): > 85.6 µM
- GI50 (U251 CNS): 0.0405 µM
- TGI (U251 CNS): 1.22 µM
- GI50 (UACC-257 melanoma): 1.19 µM
- TGI (UACC-257 melanoma): 16 µM
- GI50 (UACC-62 melanoma): 0.0255 µM
- TGI (UACC-62 melanoma): 0.265 µM
- GI50 (UO-31 renal): 0.303 µM
- TGI (UO-31 renal): 2.3 µM
- GI50 (XF 498 CNS): 1.09 µM
- TGI (XF 498 CNS): 9.25 µM

Reference: PubChem BioAssay (NCI)
